These are literature values, as cited in patent US4199515A (priority 1978, dated 1980).

Structures are written as SMILES.

This series relates to gram-positive bacteria. To be noted: background statement.

In the case of `CO[C@@H]1[C@H](C)[C@H]([C@]2(C)CC[C@H]([C@]3(C)CC[C@]4(C[C@H](OC)[C@@H](C)[C@@H]([C@@H](C)[C@H]5O[C@@](O)([C@H](C)C(=O)O)[C@H](C)[C@@H](OC)[C@H]5C)O4)O3)O2)O[C@H]1[C@H]1O[C@](C)(O)[C@H](C)[C@@H](OC)[C@@H]1C` [Lonomycin], the “activity to gram positive bacteria” value is listed as “activity to gram positive bacteria”.
